Data on 30 compounds can be found in patent publication US7462614B2, “Imidazotriazine compounds” (Smithkline Beecham Corporation, priority 2003, dated 2008).

SMILES strings stand for the structures. Some results are limits rather than exact numbers.

The test system of experiment [1] is colon (RKO) tumor cell line. The experiment is described as follows: Methylene Blue Growth Inhibition Assay, RKO. Format: cell-based. The settings on record: Homo sapiens, 72 h, 3 days, read-out: MeB Cell Line IC50. The source says: (§1) II. Methylene Blue Growth Inhibition Assay
(§2) Medium was removed by aspiration.

The subject of experiment [2] is breast tumor (MCF7) cell line. The experiment is described as follows: Methylene Blue Growth Inhibition Assay, MCF7. Format: cell-based. The settings on record: Homo sapiens, 72 h; MCF7, 3 days; read-out: MeB Cell Line IC50.
Excerpt: as §1, §2

Experiment [3] concerns prostate (PC3) tumor cell line. The experiment is described as follows: Methylene Blue Growth Inhibition Assay, PC3. Format: cell-based. As to conditions: Homo sapiens, 72 h; PC3, 3 days; read-out: MeB Cell Line IC50.
Excerpt: as §1, §2

The subject of experiment [4] is lung (H460) tumor cell line. Put plainly: Methylene Blue Growth Inhibition Assay, H460. As to conditions: Homo sapiens, NCI-H460, 72 h; H460, 3 days; read-out: MeB Cell Line IC50. Format: cell-based.
Excerpt: as §1, §2

In experiment [5] the test system is colon (HCT116) tumor cell line. The experiment is described as follows: Methylene Blue Growth Inhibition Assay, HCT116. As to conditions: Homo sapiens, HCT-116, 72 h; HCT116, 3 days; read-out: MeB Cell Line IC50. Format: cell-based.
Excerpt: as §1, §2

Experiment [6] concerns Normal Human foreskin fibroblasts (HFF). The experiment is described as follows: Methylene Blue Growth Inhibition Assay, HFF. Format: cell-based. As to conditions: 72 h, 3 days, read-out: MeB Cell Line IC50.
Excerpt: as §1, §2

Experiment [7] has as its target T1, truncated human PLK1 (kinase domain) (Homo sapiens, UniProt P53350).
T1 construct: made in house; host or cells: baculovirus-infected T. ni insect cells
The experiment is described as follows: Assay for Inhibition of PLK1 (33P SPA enzyme activity). Format: biochemical. The settings on record: 1 μM ATP, 2 nM enzyme; read-out: Ave pIC50 PLK Enzyme Inhibition (converted). The method, boiled down:
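Enzyme is the 6×His-tagged PLK1 kinase domain, purified by Ni-chelate and gel filtration. Compounds added in DMSO, then enzyme; reaction stopped with EDTA/streptavidin SPA bead mix containing 60 μM ATP, read by 33P scintillation proximity.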

T1 sequence (P53350 21-346): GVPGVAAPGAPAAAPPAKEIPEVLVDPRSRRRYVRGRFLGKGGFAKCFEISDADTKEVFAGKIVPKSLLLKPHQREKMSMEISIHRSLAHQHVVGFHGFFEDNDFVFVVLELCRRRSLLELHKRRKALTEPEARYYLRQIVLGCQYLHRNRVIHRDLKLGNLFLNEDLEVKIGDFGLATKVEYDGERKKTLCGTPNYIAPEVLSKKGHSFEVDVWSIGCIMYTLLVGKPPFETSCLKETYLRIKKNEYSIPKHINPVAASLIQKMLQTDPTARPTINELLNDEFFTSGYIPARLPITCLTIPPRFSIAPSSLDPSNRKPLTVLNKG

On to `COc1cc(Nc2ncc3c(C)nc(-c4cccc(C(F)(F)F)c4)n3n2)cc(OC)c1OC` [Example 5, 5-Methyl-7-[3-(trifluoromethyl)phenyl]-N-(3,4,5-trimethoxyphenyl)-imidazo[5,1-f][1,2,4]triazin-2-amine], for which the IC50 in experiment [1], in experiment [2], in experiment [3], in experiment [4], in experiment [5] and in experiment [6] was 1 to 10 µM throughout.
On to `COc1cc(Nc2ncc3c(C)nc(-c4cccc(C#N)c4)n3n2)cc(OC)c1OC` [Example 8, 3-{5-Methyl-2-[(3,4,5-trimethoxyphenyl)amino]imidazo[5,1-f][1,2,4]triazin-7-yl}benzonitrile], for which the IC50 in experiment [1] is 10 to 30 µM; in experiment [2], 10 to 30 µM; in experiment [3] it was 10 to 30 µM; in experiment [4], 10 to 30 µM; in experiment [5] it was 10 to 30 µM; in experiment [7], < 0.1 µM. Moreover, the IC50 in experiment [6] lay in the range of 10 to 30 µM.
Take `COc1cc(Nc2ncc3c(C)nc(-c4cccc(Br)c4)n3n2)cc(OC)c1OC` [Example 9, 7-(3-Bromophenyl)-5-methyl-N-(3,4,5-trimethoxyphenyl)imidazo-[5,1-f][1,2,4]triazin-2-amine]: the IC50 was 1 to 10 µM in experiment [1]; 1 to 10 µM in experiment [2]; 10 to 30 µM in experiment [3]; 1 to 10 µM in experiment [4]; 1 to 10 µM in experiment [5]; < 0.1 µM in experiment [7]. In addition, in experiment [6], the IC50 fell in the range of 10 to 30 µM.
Consider `COc1cc(Nc2ncc3c(C)nc(-c4cccc(C(N)=O)c4)n3n2)cc(OC)c1OC` [Example 16, 3-{5-Methyl-2-[(3,4,5-trimethoxyphenyl)amino]imidazo[5,1-f][1,2,4]triazin-7-yl}benzamide], for which the IC50 in experiment [1] was 10 to 30 µM; in experiment [2] it was 10 to 30 µM; in experiment [3], 10 to 30 µM; in experiment [4] it was 10 to 30 µM; in experiment [5], 10 to 30 µM; in experiment [7], 0.1 to 10 µM. The IC50 in experiment [6] lay within 10 to 30 µM.
For `Cc1nc(-c2ccccc2)n2nc(Nc3cccc(CCO)c3)ncc12` [Example 19, 2-{3-[(5-Methyl-7-phenylimidazo[5,1-f][1,2,4]triazin-2-yl)amino]phenyl}ethanol], the IC50 in experiment [1] is 1 to 10 µM; in experiment [2] it was 1 to 10 µM; in experiment [3] it was 10 to 30 µM; in experiment [4] it was 1 to 10 µM; in experiment [5], 1 to 10 µM; in experiment [7], < 0.1 µM. Moreover, the IC50 in experiment [6] lay in the range of 10 to 30 µM.
For the compound `COc1cc(Nc2ncc3c(C)nc(-c4ccccc4O)n3n2)cc(OC)c1OC` [Example 22, 2-{5-Methyl-2-[(3,4,5-trimethoxyphenyl)amino]imidazo[5,1-f][1,2,4]triazin-7-yl}phenol], the IC50 in experiment [1] was 10 to 30 µM; in experiment [2], 10 to 30 µM; in experiment [3], 10 to 30 µM; in experiment [4] it was 10 to 30 µM; in experiment [5], 10 to 30 µM; in experiment [7], 0.1 to 10 µM. Moreover, the IC50 in experiment [6] lay in the range of 10 to 30 µM.
For `COc1ccc(Nc2ncc3c(C)nc(-c4ccoc4)n3n2)cc1` [Example 80, 7-(3-Furanyl)-5-methyl-N-[4-(methyloxy)phenyl]imidazo-[5,1-f][1,2,4]triazin-2-amine], the IC50 in experiment [7] is 0.1 to 10 µM.
Still for that read-out and setting: next, `COc1ccc(Nc2ncc3c(C)nc(-c4ccco4)n3n2)cc1` [Example 81, 7-(2-Furanyl)-5-methyl-N-[4-(methyloxy)phenyl]imidazo-[5,1-f][1,2,4]triazin-2-amine]: 0.1 to 10 µM; `COc1ccc(Nc2ncc3c(C)nc(-c4ccc(F)cc4)n3n2)cc1` [Example 82, 7-(4-Fluorophenyl)-5-methyl-N-[4-(methyloxy)phenyl]-imidazo[5,1-f][1,2,4]triazin-2-amine]: 0.1 to 10 µM; `COc1ccc(Nc2ncc3c(C)nc(-c4cccs4)n3n2)cc1` [Example 83, 5-Methyl-N-[4-(methyloxy)phenyl]-7-(2-thienyl)imidazo[5,1-f][1,2,4]triazin-2-amine]: 0.1 to 10 µM.
The same measure, in the same setting: the same measure for `COc1ccc(Nc2ncc3c(C)nc(C4CC4)n3n2)cc1` [Example 84, 7-Cyclopropyl-5-methyl-N-[4-(methyloxy)phenyl]-imidazo[5,1-f][1,2,4]triazin-2-amine]: 0.1 to 10 µM; for `COc1ccc(Nc2ncc3c(C)nc(C4CCCCC4)n3n2)cc1` [Example 85, 7-Cyclohexyl-5-methyl-N-[4-(methyloxy)phenyl]imidazo[5,1-f][1,2,4]triazin-2-amine]: 0.1 to 10 µM.
On the same count and under the same terms, the same measure for `COc1ccc(Nc2ncc3c(C)nc(-c4ccccc4F)n3n2)cc1` [Example 86, 7-(2-FluorophenylFluorophenyl)-5-methyl-N-[4-(methyloxy)phenyl]imidazo[5,1-f][1,2,4]triazin-2-amine]: 0.1 to 10 µM.
As for `COc1ccc(Nc2ncc3c(C)nc(-c4ccc(OC)cc4)n3n2)cc1` [Example 87, 5-Methyl-N,7-bis[4-(methyloxy)phenyl]imidazo[5,1-f][1,2,4]triazin-2-amine], the IC50 in experiment [7] was 0.1 to 10 µM.
In the case of `COc1ccc(Nc2ncc3c(C)nc(Cc4ccccc4)n3n2)cc1` [Example 88, 5-Methyl-N-[4-(methyloxy)phenyl]-7-(phenylmethyl)imidazo[5,1-f][1,2,4]triazin-2-amine], the IC50 in experiment [7] is 0.1 to 10 µM.
On the same count and under the same terms, the same measure for `COc1ccc(Nc2ncc3c(C)nc(-c4cccc(F)c4)n3n2)cc1` [Example 89, 7-(3-Fluorophenyl)-5-methyl-N-[4-(methyloxy)phenyl]imidazo[5,1-f][1,2,4]triazin-2-amine]: 0.1 to 10 µM.
Consider `COc1cc(Nc2ncc3c(C)nc(C4CCCCC4)n3n2)cc(OC)c1OC` [Example 90, 7-Cyclohexyl-5-methyl-N-[3,4,5-tris(methyloxy)phenyl]imidazo[5,1-f][1,2,4]triazin-2-amine], for which the IC50 in experiment [7] is 0.1 to 10 µM.
Still for that read-out and setting: next, `COc1ccc(Nc2ncc3c(C)nc(CC4CCCCC4)n3n2)cc1` [Example 91, 7-(Cyclohexylmethyl)-5-methyl-N-[4-(methyloxy)phenyl]-imidazo[5,1-f][1,2,4]triazin-2-amine]: 0.1 to 10 µM; `COc1ccc(Nc2ncc3c(C)nc(-c4ccccc4)n3n2)cc1OC` [Example 92, N-[3,4-Bis(methyloxy)phenyl]-5-methyl-7-phenylimidazo[5,1-f][1,2,4]triazin-2-amine]: 0.1 to 10 µM; `COc1cc(Nc2ncc3c(C)nc(-c4ccccc4)n3n2)cc(OC)c1` [Example 93, N-[3,5-Bis(methyloxy)phenyl]-5-methyl-7-phenylimidazo[5,1-f][1,2,4]triazin-2-amine]: 0.1 to 10 µM.
On the same count and under the same terms, next, `CC(=O)Nc1ccc(Nc2ncc3c(C)nc(-c4ccccc4)n3n2)cc1` [Example 94, N-{4-[(5-Methyl-7-phenylimidazo[5,1-f][1,2,4]triazin-2-yl)amino]phenyl}acetamide]: 0.1 to 10 µM.
On to `CSc1ccc(Nc2ncc3c(C)nc(-c4ccccc4)n3n2)cc1` [Example 95, 5-Methyl-N-[4-(methylthio)phenyl]-7-phenylimidazo[5,1-f][1,2,4]triazin-2-amine], for which the IC50 in experiment [7] is 0.1 to 10 µM.
The same measure, in the same setting: next, `Cc1nc(-c2ccccc2)n2nc(Nc3ccc(OCCN(C)C)cc3)ncc12` [Example 96, N-(4-{[2-(Dimethylamino)ethyl]oxy}phenyl)-5-methyl-7-phenylimidazo[5.1-f][1,2,4]triazin-2-amine]: 0.1 to 10 µM; `CC(=O)N1CCc2cc(Nc3ncc4c(C)nc(-c5ccccc5)n4n3)ccc21` [Example 99, N-(1-Acetyl-2,3-dihydro-1H-indol-5-yl)-5-methyl-7-phenylimidazo[5,1-f][1,2,4]triazin-2-amine]: 0.1 to 10 µM.
The same measure, in the same setting: next, `Cc1nc(-c2ccccc2)n2nc(NC3CCCCC3)ncc12` [Example 100, N-Cyclohexyl-5-methyl-7-phenylimidazo[5,1-f][1,2,4]triazin-2-amine]: > 10 µM; `Cc1nc(-c2ccccc2)n2nc(NC3CCOCC3)ncc12` [Example 101, 5-Methyl-7-phenyl-N-(tetrahydro-2H-pyran-4-yl)imidazo[5,1-f][1,2,4]triazin-2-amine]: > 10 µM; `Cc1nc(-c2ccccc2)n2nc(Nc3ccc(OCCN4CCOCC4)cc3)ncc12` [Example 102, 5-Methyl-N-(4-{[2-(4-morpholinyl)ethyl]oxy}phenyl)-7-phenylimidazo[5,1-f][1,2,4]triazin-2-amine]: 0.1 to 10 µM.
Regarding `COc1ccc(Nc2ncc3c(C)nc(-c4ccccc4)n3n2)cc1` [Example 104, 5-Methyl-N-[4-(methyloxy)phenyl]-7-phenylimidazo[5,1-f][1,2,4]triazin-2-amine], the IC50 in experiment [7] was 0.1 to 10 µM.
The same measure, in the same setting: next, `Cc1nc(-c2ccccc2)n2nc(Nc3ccccc3)ncc12` [Example 105, 5-Methyl-N,7-diphenylimidazo[5,1-f][1,2,4]triazin-2-amine]: 0.1 to 10 µM; `COc1cccc(Nc2ncc3c(C)nc(-c4ccccc4)n3n2)c1` [Example 106, 5-Methyl-N-[3-(methyloxy)phenyl]-7-phenylimidazo[5,1-f][1,2,4]triazin-2-amine]: 0.1 to 10 µM.
